Values quoted from earlier work in article PMC10425256, “Antioxidant and Enzyme Inhibitory Potential of Streptomyces sp. G-18 Grown in Various Media” (International Journal of Microbiology, 2023).

Compound | AChE inhibition (AChE) | inhibition against lipase enzymes (lipase enzymes)
CC(C)=CCC/C(C)=C/Cc1ccc(O)c2nc3cccc(O)c3nc12 [Geranylphenazinediol] | low micromolar range | –
CCCCC/C=C\C/C=C\C[C@@H](C[C@@H]1OC(=O)[C@H]1CCCCCC)OC(=O)[C@H](CC(C)C)NC=O [lipstatin] | – | showed inhibition
Cyclipostins | – | showed inhibition
